# Reference: patent US20040110763A1, “Pyrazolopyridine compound and pharmaceutical use thereof” (priority 2000, published 2004)
row,SMILES,melting point
1,"CC(C)n1nc(-c2c(-c3ccccc3)nn3ccc(Oc4ccc([N+](=O)[O-])cn4)cc23)ccc1=O [Example 48, 5-[(5-Nitro-2-pyridinyl)oxy]-3-(3-oxo-2-isopropyl-2,3-dihydropyridazin-6-yl)-2-phenylpyrazolo[1,5-a]pyridine]",182 to 183.5 °C
2,"CC(C)n1nc(-c2c(-c3ccccc3)nn3ccc(OCC(=O)N4CCN(C(=O)N(C)C)CC4)cc23)ccc1=O [Example 55, N,N-dimethyl-4-[{3-(3-oxo-2-isopropyl-2,3-dihydropyridazin-6-yl)-2-phenylpyrazolo[1,5-a]pyridin-5-yl}oxy]acetyl-1-piperazine carboxamide]",151 to 152 °C
3,"CC(C)n1nc(-c2c(-c3ccccc3)nn3ccc(OC4CCN(C(=O)N(C)C)CC4)cc23)ccc1=O [Example 56, N,N-Dimethyl-4-[{3-(3-oxo-2-isopropyl-2,3-dihydropyridazin-6-yl)-2-phenylpyrazolo[1,5-a]pyridin-5-yl}oxy]-1-piperidine carboxamide]",164 to 166 °C
4,"CC(C)n1nc(-c2c(-c3ccccc3)nn3ccc(OCC(=O)NCCN(C)C)cc23)ccc1=O [Example 58, N-[2-(dimethylamino)ethyl]-2-{[3-(3-oxo-2-isopropyl-2,3-dihydropyridazin-6-yl)-2-phenylpyrazolo[1,5-a]pyridin-5-yl]oxy}acetamide]",117 to 119 °C
5,"COc1cccc(CNC(=O)COc2ccn3nc(-c4ccccc4)c(-c4ccc(=O)n(C(C)C)n4)c3c2)c1 [Example 59, 2-{[3-(3-Oxo-2-isopropyl-2,3-dihydropyridazin-6-yl)-2-phenylpyrazolo[1,5-a]pyridin-5-yl]oxy}-N-(3-methoxybenzyl)acetamide]",166 to 167.5 °C
6,"CC(C)n1nc(-c2c(-c3ccccc3)nn3ccc(OCC(=O)NCCc4ccccn4)cc23)ccc1=O [Example 60, 2-{[3-(3-oxo-2-isopropyl-2,3-dihydropyridazin-6-yl)-2-phenylpyrazolo[1,5-a)pyridin-5-yl]oxy}-N-[2-(2-pyridinyl)-ethyl]acetamide]",188 to 190 °C
7,"CC(C)n1nc(-c2c(-c3ccccc3)nn3ccc(OCC(=O)NC4CC4)cc23)ccc1=O [Example 61, N-Cyclopropyl-2-{[3-(3-oxo-2-isopropyl-2,3-dihydropyridazin-6-yl)-2-phenylpyrazolo[1,5-a]pyridin-5-yl]oxy}acetamide]",199 to 200 °C
8,"CC(C)n1nc(-c2c(-c3ccccc3)nn3ccc(OCC(=O)NC4CCCC4)cc23)ccc1=O [Example 62, N-Cyclopentyl-2-{[3-(3-oxo-2-isopropyl-2,3-dihydropyridazin-6-yl)-2-phenylpyrazolo[1,5-a]pyridin-5-yl]oxy}acetamide]",187 to 188 °C
9,"CC(C)n1nc(-c2c(-c3ccccc3)nn3ccc(OCC(=O)NC4CCCCC4)cc23)ccc1=O [Example 63, N-Cyclohexyl-2-{[3-(3-oxo-2-isopropyl-2,3-dihydropyridazin-6-yl)-2-phenylpyrazolo[1,5-a]pyridin-5-yl]oxy}acetamide]",170 to 171.5 °C
10,"CC(C)n1nc(-c2c(-c3ccccc3)nn3ccc(OCC(=O)NC4CCC(O)CC4)cc23)ccc1=O (stereo not drawn) [Example 64, N-(4-Hydroxycyclohexyl)-2-{[3-(3-oxo-2-isopropyl-2,3-dihydropyridazin-6-yl)-2-phenylpyrazolo[1,5-a]pyridin-5-yl]oxy}acetamide]",146 to 148 °C
11,"CCCCNC(=O)COc1ccn2nc(-c3ccccc3)c(-c3ccc(=O)n(C(C)C)n3)c2c1 [Example 65, N-Butyl-2-{[3-(3-oxo-2-isopropyl-2,3-dihydropyridazin-6-yl)-2-phenylpyrazolo[1,5-a]pyridin-5-yl]oxy}acetamide]",151 to 152 °C
12,"COCCNC(=O)COc1ccn2nc(-c3ccccc3)c(-c3ccc(=O)n(C(C)C)n3)c2c1 [Example 66, N-(2-Methoxyethyl)-2-[{3-(3-oxo-2-isopropyl-2,3-dihydropyridazin-6-yl)-2-phenylpyrazolo[1,5-a]pyridin-5-yl}oxy]acetamide]",144.5 to 145.5 °C
